Source: patent publication US20030145348A1, “Dehydroquinate dehydrase/shikimate dehydrogenase as a herbicide target” (priority 2000, published 2003)

Tests used:
[1] = test system: shikimate dehydrogenase; conditions: cited from earlier work
[2] = target: T1, dehydroquinate dehydratase (Escherichia coli, UniProt P05194); conditions: in Escherichia coli; cited from earlier work
T1 sequence (P05194 1-252): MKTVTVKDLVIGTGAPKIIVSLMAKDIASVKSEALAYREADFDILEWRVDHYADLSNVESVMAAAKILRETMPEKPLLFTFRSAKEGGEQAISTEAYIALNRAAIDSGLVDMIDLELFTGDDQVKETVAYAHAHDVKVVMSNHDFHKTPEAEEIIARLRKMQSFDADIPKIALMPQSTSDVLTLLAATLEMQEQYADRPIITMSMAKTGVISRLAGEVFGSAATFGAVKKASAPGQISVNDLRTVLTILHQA

[3] = test system: duckweed Lemna paucicostatag; experiment: Lemna test, chlorophyll fluorescence; assay type: in vivo, Lemna minor; set-up: key: A herbicidal effect can be detected by comparison with an untreated control; it is identified in Table 1 by the symbol H; conditions: chlorophyll fluorescence vs untreated control; 5 mmol/l in DMSO diluted 1:5 in water, 25 μl in 0.5 ml nutrient solution
Protocol: The effect of the herbicidal compounds according to the invention on the growth of the duckweed Lemna paucicostatag is evident from the following test results:
Lemna minor was grown under nonsterile conditions in Petri dishes in 17 mmol/l MES buffer pH 5.5+1.5 mmol/l CaCl—2+1 g/l “Hakaphos spezial”.
To carry out the test, the Lemna cultures are washed and singled out into 0.5 ml of fresh nutrient solution in 48-well microtiter plates. The active ingredients are dissolved in DMSO at a concentration of 5 mmol/l and diluted 1:5 in water. 25 μl of this solution are used in the test.
The parameter measured is the fluorescence of the chlorophyll during the treatment. A herbicidal effect can be detected by comparison with an untreated control; it is identified in Table 1 by the symbol H.

[4] = target: dehydroquinate dehydratase/shikimate dehydrogenase (Nicotiana tabacum, UniProt Q6PUF9); experiment: shikimate dehydrogenase activity assay of Example 5A (NADPH formation, OD 334 nm); assay type: biochemical; conditions: 0.1 mM shikimate, 0.1 mM NADP, pH 9.9
Protocol: A. The shikimate dehydrogenase of the bifunctional dehydroquinate dehydratase/shikimate dehydrogenase enzyme catalyzes the following reaction:
shikimate+NADP ? dehydroshikimate+NADPH
The formation of NADPH can be measured over 10 minutes at an OD of 334 nm. The reaction is started by adding 1 microliter of the extracted crude protein. The reaction buffer contains:
100 mM glycine-NaOH, pH: 9.9;
0.1 mM shikimate (Sigma);
The full-length dehydroquinate dehydratase/shikimate dehydrogenase gene was cloned into the pQE vector (FIG. 7) and transformed into E. coli. A single colony of this E. coli strain was incubated overnight at 37° C. in the growth medium “2xYT” (per liter: Bacto tryptone 16 g, yeast extract 10 g, NaCl 5 g, 50 mg/l ampicillin and 50 mg/l kanamycin). Next day, 50 ml of 2*YT were inoculated with 0.5 ml of the overnight culture and grown at 25° C. to an OD600 of 0.6. Gene expression was induced by addition of IPTG (final concentration: 0.05 mM) and incubation was continued for 3 hours at 25° C. The cells were harvested at 4° C. by centrifugation for 10 minutes at 8000 rpm. The pellet was taken up in 3 ml of extraction buffer (50 mM NaH2PO4, 300 mM NaCl, 10 mM imidazole, 15% glycerol, 5 mM mercaptoethanol). The pellet was frozen in liquid nitrogen and again defrosted on ice. The cells were disrupted by sonication (4×45 seconds, 1 minute on ice). The cells were spun down for 20 minutes at 4° C. and 1500 rpm, and the supernatent was used directly for the enzyme measurements.
Six substances whose IC50 value is in the μM range were identified in a comprehensive screening based on the activity assay described in Example 5A (see Table 1).

dehydroquinate dehydratase/shikimate dehydrogenase, sequence (Q6PUF9 entry or part of it): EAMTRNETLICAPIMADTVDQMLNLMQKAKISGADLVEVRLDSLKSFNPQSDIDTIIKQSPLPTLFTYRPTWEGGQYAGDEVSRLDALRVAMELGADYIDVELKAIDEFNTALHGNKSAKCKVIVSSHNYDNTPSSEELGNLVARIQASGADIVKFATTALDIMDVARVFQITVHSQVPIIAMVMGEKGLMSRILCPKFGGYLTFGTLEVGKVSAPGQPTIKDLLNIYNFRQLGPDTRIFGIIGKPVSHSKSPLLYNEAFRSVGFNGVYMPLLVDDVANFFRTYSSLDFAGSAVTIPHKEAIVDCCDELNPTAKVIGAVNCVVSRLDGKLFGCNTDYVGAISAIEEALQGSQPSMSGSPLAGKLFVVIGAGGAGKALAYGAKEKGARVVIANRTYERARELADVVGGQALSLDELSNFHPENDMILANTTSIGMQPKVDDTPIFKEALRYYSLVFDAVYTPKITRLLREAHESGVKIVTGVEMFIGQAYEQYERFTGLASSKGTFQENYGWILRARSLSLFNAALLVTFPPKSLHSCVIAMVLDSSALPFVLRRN

In the case of [Cl][Hg][Cl] [HgCl2], the “inhibitory effect on shikimate dehydrogenase” value [1] is given as “inhibitory effect”.
In the case of D-(+)-tartrates, the “inhibitory effect on dehydroquinate dehydratase” value [2] is given as “inhibitory effect”.
For CC(=N\O)/C(=N/Nc1ccc(S(C)(=O)=O)cc1)c1ccc(Cl)cc1 [No. 3], the “Effect (herbicidal effect on growth of Lemna)” value [3] was “H” and the IC50 [4] was 7 µM.
For acetates, the “inhibitory effect on dehydroquinate dehydratase” value [2] is given as “inhibitory effect”.
For O=C(Nc1c(Cl)cc(Cl)cc1Cl)c1cccc(O)c1O [No. 5], the “Effect (herbicidal effect on growth of Lemna)” value [3] was “H” and the IC50 [4] was 3 µM.
For COc1cc(C(=S)N[C@H]2CC[C@@H](C(C)(C)C)CC2)ccc1OC(C)=O [No. 6], the “Effect (herbicidal effect on growth of Lemna)” value [3] was “H” and the IC50 [4] was 11 µM.
In the case of [Hg+2] [Hg^2+], the “inhibitory effect on shikimate dehydrogenase” value [1] is given as “inhibitory effect”.
For arsenites, the “inhibitory effect on shikimate dehydrogenase” value [1] is listed as “inhibitory effect”.
In the case of [Cu+2] [Cu^2+], the “inhibitory effect on shikimate dehydrogenase” value [1] is given as “inhibitory effect”.
For diethylcarbonates, the “inhibitory effect on dehydroquinate dehydratase” value [2] is given as “inhibitory effect”.
In the case of CCN1C(=O)C=CC1=O [N-ethylmaleimides], the “inhibitory effect on shikimate dehydrogenase” value [1] is given as “inhibitory effect”.
In the case of [Zn+2] [Zn^2+], the “inhibitory effect on shikimate dehydrogenase” value [1] is given as “inhibitory effect”.
In the case of O=S(=O)([O-])[O-].[Cd+2] [CdSO4], the “inhibitory effect on shikimate dehydrogenase” value [1] is given as “inhibitory effect”.
In the case of p-chloromercuribenzoates, the “inhibitory effect on shikimate dehydrogenase” value [1] is listed as “inhibitory effect”.
For O=c1[nH]c2ccccc2c(=O)n1CCN1CC2C[C@@H](c3cccc(Cl)c3)C2C1 (stereo partly shown) [No. 1], the “Effect (herbicidal effect on growth of Lemna)” value [3] was “H” and the IC50 [4] was 20 µM.
For O=S(=O)([O-])[O-].[Cu+2] [CuSO4], the “inhibitory effect on shikimate dehydrogenase” value [1] is given as “inhibitory effect”.
For [Cl-].[Cl-].[Zn+2] [ZnCl2], the “inhibitory effect on shikimate dehydrogenase” value [1] is given as “inhibitory effect”.
For O=C(NNC(=O)c1sc2ccccc2c1Cl)Nc1cccc(Cl)c1 [No. 2], the “Effect (herbicidal effect on growth of Lemna)” value [3] was “H” and the IC50 [4] was 23 µM.
In the case of succinates, the “inhibitory effect on dehydroquinate dehydratase” value [2] is given as “inhibitory effect”.
For berates, the “inhibitory effect on shikimate dehydrogenase” value [1] is listed as “inhibitory effect”.
